Structures can show the parent of a compound that is named as a salt.
What was measured:
[1] = test system: gastric injuries induced by acidic alcohol; assay: gastric injuries induced by acidic alcohol (cytoprotection); assay type: in vivo, rat; settings: acidic alcohol gastric injury, female rats, pretreatment 30 min; for % Inhibition at a dose of 10 mg/kg p.o.: Table 2
Method: (1) Assay of gastric injuries induced by acidic alcohol [A. Robert, Gastroenterology, 77, 761-767 (1979)]
Female rats weighing about 120 to 150 g fasted for 24 hours were used in this test. Test compounds suspended with Tween 80 were given orally to the animals through an intragastric tube. After a certain period (pretreatmenttime) acidic alcohol was given through the intragastric tube at a dose or 0.5 ml per 100 g of body weight. The animals were sacrificed after 1 hour, their stomach was removed and incised along the great curve. The length of the reddish-brown strips (haemorrhagic lesions) was measured and the mean total length per stomach was calculated. The biological activity of the test compounds was given compared to the control group.

gastric acid secretion = assay: inhibition of gastric acid secretion by using pylorus ligature (Shay); assay type: in vivo, Wistar rat; settings: pretreatment 30 min; for ED50 p.o.: 240 min; for % Inhibition in the amount of the acid at a dose of 25 mg/kg p.o.: Table 4, female Wistar rats
Method: (2) Assay of the inhibition of gastric acid secretion by using pylorus ligature [Shay et al., Gastroenterology, 5, 43-61 (1945)]
Before ligating the pylorus the test compounds suspended with Tween were given orally at a volume of 0.5 ml per […] of body weight to female Wistar rats fasted previously for 20 hours. The animals were sacrificed 4 hours after the operation, and the amount of the acid in the stomach was measured by titration with 0.01N sodium hydroxide solution in the presence of phenolphtalein indicator. The pH value of the content of the stomach was measured by using a pH-meter (Radelkis, Type OP-211/1).

Campylobacter pylori = assay: activity against Campylobacter pylori by agar diffusion and agar dilution assays; assay type: cell-based; settings: Helicobacter pylori, Campylobacter pylori cultures isolated from 5 different ulcerous patients, read-out: MIC (minimal inhibitory concentration)
Method: The activity of the compounds of the present invention against Campylobacter pylori was investigated by agar diffusion and agar dilution assays. The experiments were carried out with Campylobacter pylori cultures isolated from 5 different ulcerous patients.

For `O=C(O)/C=C/S(=O)(=O)c1ccccc1` [C, monoethanolamine salt of 3-phenylsulfonyl-2(E)-propenoic acid], the ED50 p.o. ([1]; Table 1) was 3.6 mg/kg and the ED50 p.o. (gastric acid secretion; Table 3, female Wistar rats) was 11.0 mg/kg.
For `O=C(O)/C=C/S(=O)(=O)c1ccccc1` [E, (S)-arginine salt of 3-phenylsulfonyl-2(E)-propenoic acid], the “% Inhibition at a dose of 10 mg/kg p.o.” value [1] was 73% and the “% Inhibition in the amount of the acid at a dose of 25 mg/kg p.o.” value (“% Inhibition in the amount … of 25 mg/kg p.o.” below) (gastric acid secretion) was 56%.
With `O=C(O)/C=C/Sc1ccccc1` [G, bismuth tris [3-phenylthio-2(E)-propenoate] trihydrate] the “% Inhibition in the amount … of 25 mg/kg p.o.” value (gastric acid secretion) was 15%.
In the case of `O=C(O)/C=C/S(=O)(=O)c1ccccc1` [F, (S)-lysine salt of 3-phenylsulfonyl-2(E)-propenoic acid], the ED50 p.o. ([1]; Table 1) is reported as 4.1 mg/kg and the “% Inhibition in the amount … of 25 mg/kg p.o.” value (gastric acid secretion) is reported as 50%.
For `O.O.O.O.O=C([O-])/C=C/S(=O)(=O)c1ccccc1.O=C([O-])/C=C/S(=O)(=O)c1ccccc1.[Zn+2]` [H, zinc bis [3-phenylsulfonyl-2(E)-propenoate] tetrahydrate], the ED50 p.o. ([1]; Table 1) was 3.2 mg/kg and the ED50 p.o. (gastric acid secretion; Table 3, female Wistar rats) was 8.0 mg/kg.
In the case of `O=C(O)/C=C/S(=O)(=O)c1ccccc1` [A, bismuth tris [3-phenylsulfonyl-2(E)-propenoate] pentahydrate], the ED50 ([1]; Rattus norvegicus, po, Table 1) is reported as 4 mg/kg and the ED50 (gastric acid secretion; Rattus norvegicus, po, 4 h, Table 3, female Wistar rats) is reported as 8.6 mg/kg.
`O=C(O)/C=C/S(=O)(=O)c1ccccc1` [D, bismuth bis [3-phenylsulfonyl-2(E)-propenoate] chloride hexahydrate] showed an MIC (Campylobacter pylori) of 250 to 1000 µg/mL, an ED50 p.o. ([1]; Table 1) of 3.1 mg/kg and an ED50 p.o. (gastric acid secretion; Table 3, female Wistar rats) of 12.0 mg/kg.
“zinc bis [phenylthio-2(Z)-propenoate] hydrate” was tested, and the “% Inhibition at a dose of 10 mg/kg p.o.” value [1] was 61%.

Reference: patent US5021597A, “Novel acrylic acid salts, a process for their preparation, pharmaceutical compositions containing them and their use in the medicine” (Richter Gedeon Vegyeszeti Gyar Rt., priority 1989, dated 1991)
